Results on one compound are retold here after paper PMC10043345, “Discovery of BAR502, as potent steroidal antagonist of leukemia inhibitory factor receptor for the treatment of pancreatic adenocarcinoma” (Frontiers in Oncology, 2023).

Assay type in all cases: cell-based, human
The test system of test [1] is MIA PaCa-2 cells. Nature of the test: Scratch wound healing assay. As to conditions: BAR502 10 µM + LIF 10 ng/mL; 0, 24, 48 h. Here is the method: MIA PaCa-2 cells were seeded in DMEM complete medium at […] cells/well into 24-well plate and used at 70-80% confluence rate. The assay was performed as previously described ([20]), particularly on the day 1, the cell monolayers were gently scraped vertically with a new 0.2 mL pipette tip across the centre of the well. After scratching, the well was gently washed twice with PBS (Euroclone, Milan, Italy) to remove the detached cells and cell debris and finally fresh medium containing LIF (10 ng/mL) alone or in combination with BAR502 (10 µM) or EC359 (25 nM) was added into each well. Immediately after scratch creation, the 24-plate was placed under a phase-contrast microscope and the first image of the scratch acquired (T0) with using a OPTIKAM Pro Cool 5 – 4083.CL5 camera. Cells were grown for additional 48 h and images taken at 24h (T1) and 48 h (T2). The gap distance between scarps borders was quantified by assessing that area between the two margins of the scratches. All experiments were performed in triplicate.

Test [2] deals with MIA PaCa-2 cells. Nature of the test: AmpliSeq transcriptome (RNAseq) analysis. Particulars: LIF 10 ng/mL + BAR502 10 µM versus LIF, 24 h. On the procedure:
MIA PaCa-2 cells were cultured in 6-well tissue culture plate (cell density 1.5 * 10^6/well) in DMEM complete medium. After serum starving, cells were exposed with LIF (10 ng/mL) alone or plus BAR502 (10 µM) or left untreated for 24h. High-quality RNA was extracted from MIA PaCa-2 cells using the PureLink™ RNA Mini Kit (Thermo Fisher Scientific), according to the manufacturer’s instructions. RNA quality and quantity were assessed with the Qubit® RNA HS Assay Kit and a Qubit 3.0 fluorometer followed by agarose gel electrophoresis. Libraries were generated using the Ion AmpliSeq™ Transcriptome Human Gene Expression Core Panel and Chef-Ready Kit (Thermo Fisher Scientific), according to the manufacturer’s instructions. Briefly, 10 ng of RNA was reverse transcribed with SuperScript™ Vilo™ cDNA Synthesis Kit (Thermo Fisher Scientific, Waltham, MA) before library preparation on the Ion Chef™ instrument (Thermo Fisher Scientific, Waltham, MA). The resulting cDNA was amplified to prepare barcoded libraries using the Ion Code™ PCR Plate, and the Ion AmpliSeq™ Transcriptome Human Gene Expression Core Panel (Thermo Fisher Scientific, Waltham, MA), Chef-Ready Kit, according to the manufacturer’s instructions. Barcoded libraries were combined to a final concentration of 100 pM, and used to prepare Template-Positive Ion Sphere™ (Thermo Fisher Scientific, Waltham, MA) Particles to load on Ion 540™ Chips, using the Ion 540™ Kit-Chef (Thermo Fisher Scientific, Waltham, MA). Sequencing was performed on an Ion S5™ Sequencer with Torrent Suite™ Software v6 (Thermo Fisher Scientific). The analyses were performed with a range of fold <−2 and >+2 and a p value < 0.05, using Transcriptome Analysis Console Software (version 4.0.2), certified for AmpliSeq analysis (Thermo-Fisher). The transcriptomic data have been deposited as dataset on Mendeley data repository […].

Test [3] relates to MIA PaCa-2 cells. Nature of the test: Real-time PCR and Western blot of EMT markers, CXCR4 and STAT3 phosphorylation. Here is the method:
The RNA was extracted from cell lines using and Direct-zol™ RNA MiniPrep w/Zymo-Spin™ IIC Columns (Zymo Research, Irvine, CA, USA)., according to the manufacturer’s protocol as described previously ([20]). After purification from genomic DNA by DNase-I treatment (ThermoFisher Scientific, Waltham, MA USA), 2 µg of RNA from each sample was reverse-transcribed using Kit FastGene Scriptase Basic (Nippon Genetics, Mariaweilerstraße, Düren, Germania) in a 20 μL reaction volume. Finally, 50 ng cDNA were amp LIFied in a 20 μL solution containing 200 nM of each primer and 10 μL of SYBR Select Master Mix (ThermoFisher Scientific). All reactions were performed in triplicate, and the thermal cycling conditions were as follows: 3 min at 95°C, followed by 40 cycles of 95°C for 15 s, 56°C for 20 s and 72°C for 30 s, using a Step One Plus machine (Applied Biosystem). The relative mRNA expression was calculated accordingly to the 2^-ΔCt method. Primers used in this study were designed using the PRIMER3 (http://frodo.wi.mit.edu/primer3/) software using the NCBI […]. RT-PCR primers used in this study for human sample and human cell lines were as follow [forward (for) and reverse (rev)]:
MIA-PaCa 2 cells were seeded in 6-well tissue culture plate (cell density 1.5 * 10^6/well) in DMEM complete medium. After serum starving, cells were incubated with LIF (10 ng/mL) alone or plus BAR502 (10 µM) for 10 min. Total lysates were prepared by homogenization of MIA-PaCa2 cells in RIPA buffer containing phosphatase and protease inhibitors. […] Primary Abs were detected with the HRP-labeled secondary Abs. […] Quantitative densitometry analysis was performed using ImageJ software. The degree of STAT3 phosphorylation was calculated as the ratio between the densitometry readings of […] p-STAT3/STAT3.
In general terms: In qPCR the cycle at which signal appears reflects the starting amount.

In the case of `CC[C@H]1[C@@H](O)C2C3CC[C@H]([C@H](C)CCO)[C@@]3(C)CCC2[C@@]2(C)CC[C@@H](O)C[C@@H]12` (some centres unmarked) [BAR502], the “reduction of detachment and migration compared to LIF” value with MIA PaCa-2 cells [1] is listed as “≈ 40%”. In the test on MIA PaCa-2 cells [2], the “CCND2 expression Fold Change (FC)” value is reported as 16,13, the “KIF20A expression Fold Change (FC)” value is reported as -17,49, the “RRM2 expression Fold Change (FC)” value is -14,34 and the “SESN2 expression Fold Change (FC)” value is 15,84. Further, in the test on MIA PaCa-2 cells [2], the “SLC7A11 expression Fold Change (FC)” value was 35,54, the “TNFRSF1B (TNFR2) expression Fold Change (FC)” value is given as -11,72 and the “TOP2A expression Fold Change (FC)” value is -9,61. The “effect on STAT3 phosphorylation caused by LIF” value in the test on MIA PaCa-2 cells [3] (BAR502 10 µM + LIF 10 ng/mL, Western blot) was “significantly attenuated STAT3 phosphorylation”. Besides, the “effect on vimentin expression (RNA and protein) induced by LIF” value with MIA PaCa-2 cells [3] (BAR502 10-20 μM + LIF 10 ng/mL) is on record as “reversed the induction of vimentin expression”. The “effect on CXCR4 mRNA expression increased by LIF” value in the test with MIA PaCa-2 cells [3] (BAR502 + LIF 10 ng/mL, 24 h) is on record as “reversed the mRNA expression”.
